From the supplement of paper PMC10307832

How the values were obtained:
Test in all cases: relative viability (nuclei count vs DMSO), 5 days (fraction); higher = more cells survive
Salubrinal + Bortezomib = compound: O=C(/C=C/c1ccccc1)NC(NC(=S)Nc1cccc2cccnc12)C(Cl)(Cl)Cl [Salubrinal] + CC(C)C[C@H](NC(=O)[C@H](Cc1ccccc1)NC(=O)c1cnccn1)B(O)O [Bortezomib] (partner 0.002 µM)
Summary of the method: (§1)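 Values are medians from duplicate plates. Each reflects relative viability, defined as the nuclei count of treated wells over that of vehicle wells. Lung cancer cell lines in 1536-well plates were pin-tool dosed one day after seeding with one drug alone or with a fixed anchor-drug dose plus five library-drug doses (not always all listed) in √10 steps, then fixed, stained and imaged at 4× after 5 days.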

Salubrinal + Foretinib = compound: O=C(/C=C/c1ccccc1)NC(NC(=S)Nc1cccc2cccnc12)C(Cl)(Cl)Cl [Salubrinal] + COc1cc2c(Oc3ccc(NC(=O)C4(C(=O)Nc5ccc(F)cc5)CC4)cc3F)ccnc2cc1OCCCN1CCOCC1 [Foretinib] (partner 0.25 µM)
Summary of the method: as §1

Salubrinal + Linsitinib = compound: O=C(/C=C/c1ccccc1)NC(NC(=S)Nc1cccc2cccnc12)C(Cl)(Cl)Cl [Salubrinal] + C[C@]1(O)C[C@@H](c2nc(-c3ccc4ccc(-c5ccccc5)nc4c3)c3c(N)nccn32)C1 [Linsitinib] (partner 1 µM)
Summary of the method: as §1

[1] = compound: Cc1ccc2nc(NCCN)c3ncc(C)n3c2c1 + Cc1cc(Nc2cc(N3CCN(C)CC3)nc(Sc3ccc(NC(=O)C4CC4)cc3)n2)n[nH]1 [Tozasertib] (partner 0.1 µM)
Summary of the method: as §1

NCI-H1563
relative viability (Salubrinal + Bortezomib; first compound 0.08 µM): 0.791
relative viability (Salubrinal + Bortezomib; first compound 0.253 µM): 0.937
relative viability (Salubrinal + Bortezomib; first compound 0.8 µM): 0.859
relative viability (Salubrinal + Bortezomib; first compound 2.53 µM): 0.844
relative viability (Salubrinal + Bortezomib; first compound 8 µM): 0.776
relative viability (Salubrinal + Foretinib; first compound 0.08 µM): 0.952
relative viability (Salubrinal + Foretinib; first compound 0.253 µM): 0.919
relative viability (Salubrinal + Foretinib; first compound 0.8 µM): 0.903
relative viability (Salubrinal + Foretinib; first compound 2.53 µM): 0.929
relative viability (Salubrinal + Foretinib; first compound 8 µM): 0.866
relative viability (Salubrinal + Linsitinib; first compound 0.08 µM): 1.1
relative viability (Salubrinal + Linsitinib; first compound 0.253 µM): 1.26
relative viability (Salubrinal + Linsitinib; first compound 0.8 µM): 1.14
relative viability (Salubrinal + Linsitinib; first compound 2.53 µM): 1.21
relative viability (Salubrinal + Linsitinib; first compound 8 µM): 1.12

NCI-H1623
relative viability ([1]; first compound 0.04 µM): 0.453
relative viability ([1]; first compound 0.1265 µM): 0.486
relative viability ([1]; first compound 0.4 µM): 0.451
relative viability ([1]; first compound 1.265 µM): 0.355
relative viability ([1]; first compound 4 µM): 0.354
relative viability (Salubrinal + Foretinib; first compound 0.08 µM): 0.735
relative viability (Salubrinal + Foretinib; first compound 0.253 µM): 0.787
relative viability (Salubrinal + Foretinib; first compound 0.8 µM): 0.891
relative viability (Salubrinal + Foretinib; first compound 2.53 µM): 0.824
relative viability (Salubrinal + Foretinib; first compound 8 µM): 0.888

NCI-H1299
relative viability (Salubrinal + Bortezomib; first compound 0.08 µM): 1.05
relative viability (Salubrinal + Bortezomib; first compound 0.253 µM): 0.971
relative viability (Salubrinal + Bortezomib; first compound 0.8 µM): 1.02
relative viability (Salubrinal + Bortezomib; first compound 2.53 µM): 1.02
relative viability (Salubrinal + Bortezomib; first compound 8 µM): 1.02
relative viability (Salubrinal + Foretinib; first compound 0.08 µM): 1.12
relative viability (Salubrinal + Foretinib; first compound 0.253 µM): 1.07
relative viability (Salubrinal + Foretinib; first compound 0.8 µM): 1.14
relative viability (Salubrinal + Foretinib; first compound 2.53 µM): 1.05
relative viability (Salubrinal + Foretinib; first compound 8 µM): 1.05
relative viability (Salubrinal + Linsitinib; first compound 0.08 µM): 0.964
relative viability (Salubrinal + Linsitinib; first compound 0.253 µM): 0.876
relative viability (Salubrinal + Linsitinib; first compound 0.8 µM): 1.09
relative viability (Salubrinal + Linsitinib; first compound 2.53 µM): 1
relative viability (Salubrinal + Linsitinib; first compound 8 µM): 0.96

NCI-H1944
relative viability ([1]; first compound 0.04 µM): 0.256
relative viability ([1]; first compound 0.1265 µM): 0.248
relative viability ([1]; first compound 0.4 µM): 0.246
relative viability ([1]; first compound 1.265 µM): 0.241
relative viability ([1]; first compound 4 µM): 0.253
relative viability (Salubrinal + Foretinib; first compound 0.08 µM): 0.871
relative viability (Salubrinal + Foretinib; first compound 0.253 µM): 0.987
relative viability (Salubrinal + Foretinib; first compound 0.8 µM): 0.885
relative viability (Salubrinal + Foretinib; first compound 2.53 µM): 0.913
relative viability (Salubrinal + Foretinib; first compound 8 µM): 0.904
relative viability (Salubrinal + Linsitinib; first compound 0.08 µM): 1.28
relative viability (Salubrinal + Linsitinib; first compound 0.253 µM): 1.23
relative viability (Salubrinal + Linsitinib; first compound 0.8 µM): 1.34
relative viability (Salubrinal + Linsitinib; first compound 2.53 µM): 1.17
relative viability (Salubrinal + Linsitinib; first compound 8 µM): 1.15

NCI-H1395
relative viability ([1]; first compound 0.04 µM): 0.754
relative viability ([1]; first compound 0.1265 µM): 0.763
relative viability ([1]; first compound 0.4 µM): 0.661
relative viability ([1]; first compound 1.265 µM): 0.655
relative viability ([1]; first compound 4 µM): 0.795
relative viability (Salubrinal + Foretinib; first compound 0.08 µM): 0.993
relative viability (Salubrinal + Foretinib; first compound 0.253 µM): 1.1
relative viability (Salubrinal + Foretinib; first compound 0.8 µM): 0.938
relative viability (Salubrinal + Foretinib; first compound 2.53 µM): 0.92
relative viability (Salubrinal + Foretinib; first compound 8 µM): 1.08
relative viability (Salubrinal + Linsitinib; first compound 0.08 µM): 1.31
relative viability (Salubrinal + Linsitinib; first compound 0.253 µM): 1.12
relative viability (Salubrinal + Linsitinib; first compound 0.8 µM): 1.09
relative viability (Salubrinal + Linsitinib; first compound 2.53 µM): 0.998
relative viability (Salubrinal + Linsitinib; first compound 8 µM): 1.15

NCI-H522
relative viability ([1]; first compound 0.04 µM): 0.557
relative viability ([1]; first compound 0.1265 µM): 0.647
relative viability ([1]; first compound 0.4 µM): 0.555
relative viability ([1]; first compound 1.265 µM): 0.517
relative viability ([1]; first compound 4 µM): 0.592

A549
relative viability (Salubrinal + Foretinib; first compound 0.08 µM): 1.01
relative viability (Salubrinal + Foretinib; first compound 0.253 µM): 0.753
relative viability (Salubrinal + Foretinib; first compound 0.8 µM): 0.932
relative viability (Salubrinal + Foretinib; first compound 2.53 µM): 0.861
relative viability (Salubrinal + Foretinib; first compound 8 µM): 0.892
relative viability (Salubrinal + Linsitinib; first compound 0.08 µM): 0.709
relative viability (Salubrinal + Linsitinib; first compound 0.253 µM): 0.568
relative viability (Salubrinal + Linsitinib; first compound 0.8 µM): 0.669
relative viability (Salubrinal + Linsitinib; first compound 2.53 µM): 0.558
relative viability (Salubrinal + Linsitinib; first compound 8 µM): 0.54

NCI-H1648
relative viability ([1]; first compound 0.04 µM): 0.498
relative viability ([1]; first compound 0.4 µM): 0.546
relative viability ([1]; first compound 4 µM): 0.3

SW 900
relative viability ([1]; first compound 0.04 µM): 0.491
relative viability ([1]; first compound 0.1265 µM): 0.513
relative viability ([1]; first compound 1.265 µM): 0.471
relative viability ([1]; first compound 4 µM): 0.612
relative viability (Salubrinal + Foretinib; first compound 0.08 µM): 0.78
relative viability (Salubrinal + Foretinib; first compound 0.8 µM): 0.806
relative viability (Salubrinal + Foretinib; first compound 2.53 µM): 0.698
relative viability (Salubrinal + Foretinib; first compound 8 µM): 0.659

IA-LM
relative viability (Salubrinal + Bortezomib; first compound 0.08 µM): 1.01
relative viability (Salubrinal + Bortezomib; first compound 0.253 µM): 0.874
relative viability (Salubrinal + Bortezomib; first compound 0.8 µM): 0.895
relative viability (Salubrinal + Bortezomib; first compound 2.53 µM): 0.68
relative viability (Salubrinal + Bortezomib; first compound 8 µM): 0.758
relative viability (Salubrinal + Foretinib; first compound 0.08 µM): 1.21
relative viability (Salubrinal + Foretinib; first compound 0.253 µM): 0.764
relative viability (Salubrinal + Foretinib; first compound 0.8 µM): 1.17
relative viability (Salubrinal + Foretinib; first compound 2.53 µM): 1.12
relative viability (Salubrinal + Foretinib; first compound 8 µM): 0.775
relative viability (Salubrinal + Linsitinib; first compound 0.08 µM): 0.256
relative viability (Salubrinal + Linsitinib; first compound 0.253 µM): 0.472
relative viability (Salubrinal + Linsitinib; first compound 0.8 µM): 0.704
relative viability (Salubrinal + Linsitinib; first compound 2.53 µM): 0.519
relative viability (Salubrinal + Linsitinib; first compound 8 µM): 1.09

ChaGo-K-1
relative viability ([1]; first compound 0.04 µM): 0.258
relative viability ([1]; first compound 0.1265 µM): 0.253
relative viability ([1]; first compound 0.4 µM): 0.253
relative viability ([1]; first compound 1.265 µM): 0.236
relative viability ([1]; first compound 4 µM): 0.238
relative viability (Salubrinal + Bortezomib; first compound 0.08 µM): 1.06
relative viability (Salubrinal + Bortezomib; first compound 0.253 µM): 0.759
relative viability (Salubrinal + Bortezomib; first compound 0.8 µM): 1.6
relative viability (Salubrinal + Bortezomib; first compound 2.53 µM): 1.2
relative viability (Salubrinal + Bortezomib; first compound 8 µM): 1.03
relative viability (Salubrinal + Foretinib; first compound 0.08 µM): 0.989
relative viability (Salubrinal + Foretinib; first compound 0.253 µM): 0.956
relative viability (Salubrinal + Foretinib; first compound 0.8 µM): 0.892
relative viability (Salubrinal + Foretinib; first compound 2.53 µM): 0.869
relative viability (Salubrinal + Foretinib; first compound 8 µM): 0.802

LK-2
relative viability ([1]; first compound 0.04 µM): 0.171
relative viability ([1]; first compound 0.1265 µM): 0.174
relative viability ([1]; first compound 0.4 µM): 0.152
relative viability ([1]; first compound 1.265 µM): 0.154
relative viability ([1]; first compound 4 µM): 0.179
relative viability (Salubrinal + Foretinib; first compound 0.08 µM): 0.983
relative viability (Salubrinal + Foretinib; first compound 0.253 µM): 1.18
relative viability (Salubrinal + Foretinib; first compound 0.8 µM): 1.6
relative viability (Salubrinal + Foretinib; first compound 2.53 µM): 1.24
relative viability (Salubrinal + Foretinib; first compound 8 µM): 1.09
relative viability (Salubrinal + Linsitinib; first compound 0.08 µM): 0.558
relative viability (Salubrinal + Linsitinib; first compound 0.253 µM): 0.521
relative viability (Salubrinal + Linsitinib; first compound 0.8 µM): 0.762
relative viability (Salubrinal + Linsitinib; first compound 2.53 µM): 0.757
relative viability (Salubrinal + Linsitinib; first compound 8 µM): 0.723

HCC-44
relative viability ([1]; first compound 0.04 µM): 1.06
relative viability ([1]; first compound 0.1265 µM): 0.896
relative viability ([1]; first compound 0.4 µM): 1.04
relative viability ([1]; first compound 1.265 µM): 0.753
relative viability ([1]; first compound 4 µM): 0.645
relative viability (Salubrinal + Bortezomib; first compound 0.08 µM): 0.799
relative viability (Salubrinal + Bortezomib; first compound 0.253 µM): 0.817
relative viability (Salubrinal + Bortezomib; first compound 0.8 µM): 0.997
relative viability (Salubrinal + Bortezomib; first compound 2.53 µM): 0.922
relative viability (Salubrinal + Bortezomib; first compound 8 µM): 0.86
relative viability (Salubrinal + Linsitinib; first compound 0.08 µM): 0.761
relative viability (Salubrinal + Linsitinib; first compound 0.253 µM): 0.754
relative viability (Salubrinal + Linsitinib; first compound 0.8 µM): 0.731
relative viability (Salubrinal + Linsitinib; first compound 2.53 µM): 0.703
relative viability (Salubrinal + Linsitinib; first compound 8 µM): 0.65
